What was measured:
Type in all cases: cell-based, mouse
activated CD4+ T cells = assay: Survival of activated CD4+ T cells treated with TLR ligands (7-AAD/annexin exclusion)
Method: All CD4^+ T cell activation was conducted in complete culture medium composed of RPMI 1640 (Life Technologies, Grand Island, N.Y.), 1.5 μM 2-ME (Sigma-Aldrich, St. Louis, Mo.), 50 μg/ml gentamicin (Life Technologies), and 10% FCS (Mediatech, Washington, D.C.) at 37° C. in 5% CO2. Purified CD4^+ T cells from either BALB/c, MyD88^−/−, or MyD88^+/+ wild-type control littermates were activated on 24-well plates (Costar, Cambridge, Mass.) coated with 1.0 μg/ml CD3ε monoclonal antibody (2C11; BD Biosciences) and 1.0 μg/ml CD28 monoclonal antibody (37.51; BD Biosciences) for 16 hours. In experiments with DO11.10 mice, 1 μg/ml of pOVA, a peptide derived from chicken albumin amino acid residues […] was added to 2×10^6/ml erythrocyte-depleted splenocyte and lymph node cell pools for 16 hours. Following pOVA-induced activation, CD4^+ T cell APC complexes were disrupted with 5 mM EDTA/PBS for 10 minutes at 25° C., washed twice in PBS, and purified with magnetic beads using the MACS CD4^+ T cell isolation kit as described elsewhere herein. Purity of activated DO11.10 CD4^+ T cells exceeded 96%. As described elsewhere herein, the remainder of the contaminants by FACS analysis were CD8^+ T cells, with APCs at <0.1% by RT-PCR.
(§1) Following activation, purified CD4^+ T cells were washed twice in PBS and replated in culture medium at 10^6/ml. Cultures were left untreated or treated with either TLR ligands and/or inhibitors for indicated times and concentrations. Following incubation, CD4^+ T cells were washed twice in PBS/2% FBS and stained with CD4-allophycocyanin monoclonal antibody and 7-aminoactinomycin D (7-AAD; BD PharMingen) or annexin (BD PharMingen) and survival was assessed by exclusion of either of these two stains. For absolute live cell counts 50,000 CD45.1^+ splenocytes labeled with anti-CD45.1-PE monoclonal antibody (A20; BD PharMingen) were also added to stained CD4^+ T cell sample FACS tubes just before FACS analysis. Live CD4^+ T cell counts were calculated by taking the ratio of the number of CD4^+CD45.1^−7-ADD^− events collected to the number CD45.1^+ events collected and multiplying by 50,000. Proliferation was measured by CFSE dye dilution as previously described (Wells et al., 1997 J. Clin. Invest. 100:3173).
TLR ligands directly promote the survival of several cell types including neutrophils, DC, and B cells (Lundqvist et al., 2002, Cancer Immunol. Immunother. 51:139; Sabroe et al., 2003, J. Immunol. 170:5268; Grillot et al., 1996, J. Exp. Med. 183:381; Grillot et al., 1996, J. Exp. Med. 183:381). Since it was observed that activated CD4^+ T cells also express TLRs and signal in response to TLR ligands, the next set of experiments were designed to assess whether TLR ligands could directly enhance survival of these cells. DO11.10 CD4^+ T cells, that encode a transgenic TCR specific for a peptide derived from chicken OVA (pOVA), were activated with pOVA-pulsed APCs for 16 hours ex vivo, purified by magnetic beads to remove all non-CD4^+ T cells, and replated in unsupplemented culture medium in the absence or presence of TLR ligands. Survival was then assessed 72 hours following activation (FIG. 3A). Poly(I:C) or CpG DNA induced increases of activated CD4^+ T cell survival from 38% to 71 and 73%, respectively.

CD4+ T cells = assay: TLR ligation at the time of T cell stimulation: proliferation, IL-2 production and signaling
Method: The present experiments were designed to assess the effects of TLR ligation at the time of T cell stimulation, and analysis of signaling pathways which mediate them.
Similar results were observed when anti-CD28 was used in combination with anti-CD3 (FIGS. 7B-7D). IL-2 production from treat T cells were also measured (FIG. 8). These effects were additive to those of anti-CD28 stimulation.
This led to the examination of other signaling pathways downstream of TLR9. For example, experiments were designed to assess the role of phosphatidyl inositol 3 kinase (PI3K) in TLR9 activation because of the ability of TLR ligation to synergize with TCR stimulation for IL-2 production and proliferation was reminiscent of CD28 functions. PI3K is a lipid kinase which catalyzes the phosphorylation of phosphatidyl inositol bis 4, 5, phosphate (PIP2) into phosphatidyl inositol tris 3, 4, 5, phosphate (PIP3). PIP3 is an important cell signaling molecule, activating protein kinase B/Akt, and other downstream pathways. In T cells, PI3K activation is a major known downstream signaling pathway of the T cell costimulatory receptor CD28.

[1] = system: MyD88-/- activated CD4+ T cells; assay: TLR ligand-mediated survival of MyD88-/- activated CD4+ T cells; conditions: FIG. 4B
Description: BALB/c mice were purchased from The Jackson Laboratory (Bar Harbor, Me.). DO11.10 mice on the BALB/c background have been described previously (Hsieh et al., 1992, Proc. Natl. Acad. Sci. USA 89:6065). MyD88^−/− mice have been described previously (Adachi et al., 1998, Immunity 9:143). For these experiments MyD88^+/− mice were backcrossed at least five times onto a C57BL/6 background and intercrossed to generate MyD88^−/− and MyD88^+/+ wild-type control littermates.
as §1, with “For absolute live cell counts 50,000 CD45.1^+ splenocytes labeled with anti-CD45.1-PE monoclonal antibody (A20; BD PharMingen) were also added to stained CD4^+ T cell sample FACS tubes just before FACS analysis.” left out, “100:3173). […]” for “100:3173).”

poly(I:C)
activated CD4+ T cell survival (activated CD4+ T cells; 72 hours following activation, DO11.10 CD4+ T cells activated with pOVA-pulsed APCs, purified, untreated 38% (FIG. 3A)): 71% | effect on activated CD4+ T cell survival (dose response) (activated CD4+ T cells; FIG. 3B, purified activated CD4+ T cells): dose-dependent manner | activated CD4+ T cell survival in TLR ligand-treated cultures spiked with APCs (activated CD4+ T cells; T cell-depleted lymph node cells and splenocytes (APC) added): significantly increased dose-responsive survival | IL-2 protein production with T cell stimulation (CD4+ T cells; FIG. 8): able to synergize | TRAF6 requirement of proliferative effects (CD4+ T cells; FIG. 9): did not require TRAF6 | T cell proliferation with T cell stimulation (CD4+ T cells; with sub-mitogenic anti-CD3, with or without anti-CD28 (FIG. 7)): able to synergize | enhanced survival response in MyD88-/- activated CD4+ T cells [1]: left intact
